Measurements taken from PubChem BioAssay (NCI).
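Cells were grown in 96-well plates and exposed to each compound for 48 hours at five concentrations; endpoints were interpolated linearly between bracketing concentrations, or set to the highest concentration if not reached. GI50: concentration for 50% inhibition of growth. Definition used: TGI = concentration required for complete inhibition of growth.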

Experiments:
Experiment in all cases: inhibition of tumour cell growth, NCI panel, 48 h
M14 melanoma = test system: M14 melanoma
MALME-3M melanoma = test system: MALME-3M melanoma
SK-MEL-28 melanoma = test system: SK-MEL-28 melanoma
HCT-15 colon = test system: HCT-15 colon
DU-145 prostate = test system: DU-145 prostate
MDA-MB-231 breast = test system: MDA-MB-231 breast
UACC-257 melanoma = test system: UACC-257 melanoma
KM12 colon = test system: KM12 colon
EKVX NSCLC = test system: EKVX NSCLC
CCRF-CEM leukemia = test system: CCRF-CEM leukemia
SF-295 CNS = test system: SF-295 CNS
NCI-H226 lung = test system: NCI-H226 lung
OVCAR-4 ovarian = test system: OVCAR-4 ovarian
OVCAR-5 ovarian = test system: OVCAR-5 ovarian
HL-60(TB) leukemia = test system: HL-60(TB) leukemia
SN12C renal = test system: SN12C renal
U251 CNS = test system: U251 CNS
HS 578T breast = test system: HS 578T breast
NCI-H460 lung = test system: NCI-H460 lung
HOP-62 NSCLC = test system: HOP-62 NSCLC
ACHN renal = test system: ACHN renal
SK-OV-3 ovarian = test system: SK-OV-3 ovarian
NCI-H522 lung = test system: NCI-H522 lung
BT-549 breast = test system: BT-549 breast
SNB-75 CNS = test system: SNB-75 CNS
PC-3 prostate = test system: PC-3 prostate
SF-268 CNS = test system: SF-268 CNS
TK-10 renal = test system: TK-10 renal
OVCAR-3 ovarian = test system: OVCAR-3 ovarian
UO-31 renal = test system: UO-31 renal
MCF7 breast = test system: MCF7 breast
MDA-MB-435 = test system: MDA-MB-435
SK-MEL-2 melanoma = test system: SK-MEL-2 melanoma
MDA-MB-468 breast = test system: MDA-MB-468 breast
RXF 393 renal = test system: RXF 393 renal
SR leukemia = test system: SR leukemia
RPMI-8226 leukemia = test system: RPMI-8226 leukemia
SK-MEL-5 melanoma = test system: SK-MEL-5 melanoma
SNB-19 CNS = test system: SNB-19 CNS
HT29 colon = test system: HT29 colon
COLO 205 colon = test system: COLO 205 colon
A549 NSCLC = test system: A549 NSCLC
HOP-92 NSCLC = test system: HOP-92 NSCLC
HCT-116 colon = test system: HCT-116 colon
MOLT-4 leukemia = test system: MOLT-4 leukemia
NCI/ADR-RES ovarian = test system: NCI/ADR-RES ovarian
OVCAR-8 ovarian = test system: OVCAR-8 ovarian
K-562 leukemia = test system: K-562 leukemia
CAKI-1 renal = test system: CAKI-1 renal
SF-539 CNS = test system: SF-539 CNS
SW-620 colon = test system: SW-620 colon
IGROV1 ovarian = test system: IGROV1 ovarian
HCC-2998 colon = test system: HCC-2998 colon
UACC-62 melanoma = test system: UACC-62 melanoma
786-0 renal = test system: 786-0 renal
LOX IMVI melanoma = test system: LOX IMVI melanoma
T-47D breast = test system: T-47D breast
NCI-H23 lung = test system: NCI-H23 lung
A498 renal = test system: A498 renal

SMILES: Nc1nc(Nc2ccc(Cl)cc2)n(Cc2cccc(Br)c2)n1
- GI50 (M14 melanoma): 29.5 µM
- TGI (M14 melanoma): > 100 µM
- GI50 (MALME-3M melanoma): 21.5 µM
- TGI (MALME-3M melanoma): 71.2 µM
- GI50 (SK-MEL-28 melanoma): 26 µM
- TGI (SK-MEL-28 melanoma): > 100 µM
- GI50 (HCT-15 colon): 27 µM
- TGI (HCT-15 colon): > 100 µM
- GI50 (DU-145 prostate): 41.1 µM
- TGI (DU-145 prostate): > 100 µM
- GI50 (MDA-MB-231 breast): 30.5 µM
- TGI (MDA-MB-231 breast): > 100 µM
- GI50 (UACC-257 melanoma): 33.6 µM
- TGI (UACC-257 melanoma): > 100 µM
- GI50 (KM12 colon): 33.3 µM
- TGI (KM12 colon): > 100 µM
- GI50 (EKVX NSCLC): 25.2 µM
- TGI (EKVX NSCLC): > 100 µM
- GI50 (CCRF-CEM leukemia): 36.8 µM
- TGI (CCRF-CEM leukemia): > 100 µM
- GI50 (SF-295 CNS): 22.6 µM
- TGI (SF-295 CNS): 74.9 µM
- GI50 (NCI-H226 lung): 25.3 µM
- TGI (NCI-H226 lung): > 100 µM
- GI50 (OVCAR-4 ovarian): 34 µM
- TGI (OVCAR-4 ovarian): > 100 µM
- GI50 (OVCAR-5 ovarian): 22.3 µM
- TGI (OVCAR-5 ovarian): 73.5 µM
- GI50 (HL-60(TB) leukemia): 24.6 µM
- TGI (HL-60(TB) leukemia): 71.8 µM
- GI50 (SN12C renal): 26.2 µM
- TGI (SN12C renal): > 100 µM
- GI50 (U251 CNS): 31.3 µM
- TGI (U251 CNS): > 100 µM
- GI50 (HS 578T breast): 24.4 µM
- TGI (HS 578T breast): 96.3 µM
- GI50 (NCI-H460 lung): 23.7 µM
- TGI (NCI-H460 lung): 57.5 µM
- GI50 (HOP-62 NSCLC): 49 µM
- TGI (HOP-62 NSCLC): > 100 µM
- GI50 (ACHN renal): 29.3 µM
- TGI (ACHN renal): > 100 µM
- GI50 (SK-OV-3 ovarian): 34.5 µM
- TGI (SK-OV-3 ovarian): > 100 µM
- GI50 (NCI-H522 lung): 18.7 µM
- TGI (NCI-H522 lung): 44.5 µM
- GI50 (BT-549 breast): 38.8 µM
- TGI (BT-549 breast): 92 µM
- GI50 (SNB-75 CNS): 15.5 µM
- TGI (SNB-75 CNS): 60.6 µM
- GI50 (PC-3 prostate): 29.8 µM
- TGI (PC-3 prostate): > 100 µM
- GI50 (SF-268 CNS): 27.9 µM
- TGI (SF-268 CNS): > 100 µM
- GI50 (TK-10 renal): 40 µM
- TGI (TK-10 renal): > 100 µM
- GI50 (OVCAR-3 ovarian): 33.8 µM
- TGI (OVCAR-3 ovarian): > 100 µM
- GI50 (UO-31 renal): 21 µM
- TGI (UO-31 renal): 90.4 µM
- GI50 (MCF7 breast): 25.1 µM
- TGI (MCF7 breast): > 100 µM
- GI50 (MDA-MB-435): 19 µM
- TGI (MDA-MB-435): 42.2 µM
- GI50 (SK-MEL-2 melanoma): 18.9 µM
- TGI (SK-MEL-2 melanoma): 38.1 µM
- GI50 (MDA-MB-468 breast): 16.8 µM
- TGI (MDA-MB-468 breast): 45.3 µM
- GI50 (RXF 393 renal): 17 µM
- TGI (RXF 393 renal): 60.5 µM
- GI50 (SR leukemia): 57.6 µM
- TGI (SR leukemia): > 100 µM
- GI50 (RPMI-8226 leukemia): 31.6 µM
- TGI (RPMI-8226 leukemia): > 100 µM
- GI50 (SK-MEL-5 melanoma): 17.4 µM
- TGI (SK-MEL-5 melanoma): 33.5 µM
- GI50 (SNB-19 CNS): 30.7 µM
- TGI (SNB-19 CNS): > 100 µM
- GI50 (HT29 colon): 35.6 µM
- TGI (HT29 colon): > 100 µM
- GI50 (COLO 205 colon): 37.4 µM
- TGI (COLO 205 colon): > 100 µM
- GI50 (A549 NSCLC): 32.9 µM
- TGI (A549 NSCLC): > 100 µM
- GI50 (HOP-92 NSCLC): 19.4 µM
- TGI (HOP-92 NSCLC): 63.8 µM
- GI50 (HCT-116 colon): 31.3 µM
- TGI (HCT-116 colon): > 100 µM
- GI50 (MOLT-4 leukemia): 25.6 µM
- TGI (MOLT-4 leukemia): > 100 µM
- GI50 (NCI/ADR-RES ovarian): 20.2 µM
- TGI (NCI/ADR-RES ovarian): 51.5 µM
- GI50 (OVCAR-8 ovarian): 35.7 µM
- TGI (OVCAR-8 ovarian): > 100 µM
- GI50 (K-562 leukemia): 28 µM
- TGI (K-562 leukemia): > 100 µM
- GI50 (CAKI-1 renal): 25.9 µM
- TGI (CAKI-1 renal): > 100 µM
- GI50 (SF-539 CNS): 22.2 µM
- TGI (SF-539 CNS): 62.1 µM
- GI50 (SW-620 colon): 32.8 µM
- TGI (SW-620 colon): > 100 µM
- GI50 (IGROV1 ovarian): 30.7 µM
- TGI (IGROV1 ovarian): > 100 µM
- GI50 (HCC-2998 colon): 27 µM
- TGI (HCC-2998 colon): > 100 µM
- GI50 (UACC-62 melanoma): 18.3 µM
- TGI (UACC-62 melanoma): 61.1 µM
- GI50 (786-0 renal): 34.9 µM
- TGI (786-0 renal): > 100 µM
- GI50 (LOX IMVI melanoma): 17.2 µM
- TGI (LOX IMVI melanoma): 35.9 µM
- GI50 (T-47D breast): 30.5 µM
- TGI (T-47D breast): > 100 µM
- GI50 (NCI-H23 lung): 29 µM
- TGI (NCI-H23 lung): > 100 µM
- GI50 (A498 renal): 26.7 µM
- TGI (A498 renal): 85.9 µM
